Tests used:
MyD88+ EOC cells [1] = experiment: CELLTITER96 cell viability / proliferation assay, MyD88+ EOC cells; type: cell-based, human; conditions: EOC cells that express MyD88
Experimental: Cell viability was evaluated using a cell proliferation assay, i.e., the CELLTITER96® Aqueous One Solution Cell Proliferation Assay (Promega, Madison, Wis.) according to the manufacturer's instructions. The values from the treated cells were compared with the values generated from the untreated cells and reported as percent viability. Each experiment was performed at least three times.
Once the expression of TLR-4 in EOC samples was established, Applicants evaluated the biological function of this receptor and also evaluated the significance of MyD88 status. EOC cell lines expressing MyD88 (MyD88^+) and those shown to lack MyD88 (MyD88^−) were treated with increasing concentrations of LPS (one of the main ligands for TLR-4) for 24 h and 48 h and cell viability was determined using a cell proliferation assay, i.e., the CELLTITER96® AQueous One Solution Cell Proliferation Assay. […] Thus, LPS induced a time- and dose-dependent increase in cell proliferation in cells expressing MyD88, but not in MyD88− EOC cells. LPS had no effect on viability of OSE cell, which are also negative for MyD88 expression.

MyD88+ EOC cells [2] = experiment: Cytokine ELISA (GRO-α, MCP-1, IL-6), MyD88+ EOC cells; type: cell-based, human; conditions: increasing concentrations of paclitaxel, 24 h, 48 h, 72 h; dose- and time-dependent, p<0.01
Experimental: (§1) The concentrations of the IL-6, GRO-α, MCP-1 were evaluated by ELISA, according to the manufacturer's instructions. (R&D Systems, Minneapolis, Minn.)
(§2) EOC cell lines were treated for 48 h with 10 μg/ml LPS and the levels of GRO-α, MCP-1, and IL-6 were determined. […] Unstimulated MyD88^+ EOC cells constitutively express all the cytokines tested. […] In contrast, unstimulated MyD88^− EOC cells secreted undetectable or low levels of these pro-inflammatory cytokines, which were not affected by TLR-4 ligation with LPS.
(§3) MyD88^+ and MyD88^− EOC cells were treated with increasing concentrations of paclitaxel for 24 h, 48 h, and 72 h and levels of IL-6 secretion were determined by ELISA.

MyD88- EOC cells [3] = experiment: Cytokine ELISA (GRO-α, MCP-1, IL-6), MyD88- EOC cells; type: cell-based, human; conditions: increasing concentrations of paclitaxel, 24 h, 48 h, 72 h
Experimental: as §1, §2, §3

MyD88- EOC cell lines = experiment: CASPASE GLO 3/7 apoptosis assay, MyD88- EOC cell lines; type: cell-based, human; conditions: 2 μM paclitaxel, 24 h
Experimental: (§4) Ten μg of protein in a 50 μl total volume was mixed with 50 μl of equilibrated reagents of a caspase assay kit, i.e., the CASPASE GLO™ 3/7 Assay (Promega). After incubating at room temperature for 1 h, luminescence was measured using TD 20/20 Luminometer (Turner Designs, Sunnyvale, Calif.). Blank values were subtracted and fold-increase in activity was calculated based on activity measured from untreated cells. Each sample was measured in triplicate.
(§5) Paclitaxel has been reported to be a potential ligand to TLR-4 (23). […] EOC cells were treated with 2 μM paclitaxel for 24 h and apoptosis was determined by measuring the activity of caspases-3 and -7 using a caspase assay kit CASPASE GLO™ 3/7 Assay.

MyD88+ EOC cells [4] = experiment: CASPASE GLO 3/7 apoptosis assay, MyD88+ EOC cells; type: cell-based, human; conditions: 2 μM paclitaxel, 24 h
Experimental: as §4, §5

normal OSE cells = experiment: CASPASE GLO 3/7 apoptosis assay, normal OSE cells; type: cell-based; conditions: 2 μM paclitaxel, 24 h
MyD88+ EOC cells [5] = experiment: Cytokine microarray (Fast Quant), MyD88+ EOC cells; type: cell-based, human; conditions: 48 h; LPS 10 μg/ml or paclitaxel 20 μM
Experimental: (§6) A panel of 10 cytokines, pro and anti-inflammatory, was simultaneously evaluated using the Fast Quant Human II kit (Whatman/Schleicher & Schuell) according to the manufacturer instructions. The signal was detected using the Genepix 4000 microarray reader and the results were analyzed using the Genepix 3.0 software (Whatman/Schleicher & Schuell).
(§7) To further characterize the effect of paclitaxel and LPS on the secretion of several cytokines and chemokines in MyD88^+ and MyD88^− EOC cells, Applicants used a high throughput microarray system (Whatman/Schleicher & Schull) to measure the levels of IL-6, IL-4, IL-8, IL-12, RANTES, and IFN-γ. Cytokine secretion was measured in the supernatants of EOC cells following 48 h incubation with either LPS (10 μg/ml) or paclitaxel (20 μM).

MyD88- EOC cells [6] = experiment: Cytokine microarray (Fast Quant), MyD88- EOC cells; type: cell-based, human; conditions: 48 h; LPS 10 μg/ml or paclitaxel 20 μM
Experimental: as §6, §7

MyD88+ R182 EOC cells = experiment: IL-6 secretion in R182 EOC cells with and without MyD88 RNAi; type: cell-based, human
Experimental: EOC cells were transiently transfected with a GFP-expressing plasmid containing silencing RNA (siRNA) directed against MyD88 (psiRNA-hMyD88, Invivogen, San Diego, Calif.). Briefly, 1.5×10^5 cells were seeded in 60 mm dishes and cultured overnight until 40-60% confluent. Cells were then transfected for 18 h with 2 μg of DNA using Fugene 6 Transfection reagent (Roche Applied Science, Indianapolis, Ind.). Ratio of Fugene to DNA was 3:1. Following transfection, cells were allowed to recover in growth media for 24 h prior to treatment.
In order to confirm that in MyD88^+ EOC cells, the ligation of TLR-4 by either LPS or paclitaxel induces the production of cytokines, Applicants inhibited its expression in MyD88^+ R182 EOC cells using RNA interference technology. […] These findings confirmed that the cytokine response in EOC cells following LPS and paclitaxel treatment involves signaling through MyD88.

A2780 and CP70 EOC cells = experiment: Caspase-3/7 activity in A2780 and CP70 cells, wt or transfected with pUNO-hMyD88; type: cell-based, human; conditions: 48 h
Experimental: as §4
Transfection was performed using a plasmid containing the full-length cDNA (SEQ ID NO:3) of human MyD88 (pUNO-hMyD88, Invivogen), which encodes the amino acid sequence of SEQ ID NO:4. CP70 and A2780 cells were grown in […] surface tissue culture flasks until they reached 50% confluence. 12 μl of the Fugene 6 Transfection reagent was added into 4 ml of serum-free media for each transfection. […]
Because Applicants observed a positive correlation between MyD88 expression and resistance to paclitaxel-induced apoptosis, their next objective was to determine whether the induction of MyD88 expression in EOC might confer resistance to paclitaxel. […] After 24 h of transfection, the cells were either left untreated or treated with 2 μM paclitaxel for 48 h and caspase-3/7 activity was determined.

A2780 EOC cells = experiment: Caspase-3/7 activity in A2780 cells, wt or MyD88 transfected, carboplatin versus paclitaxel; type: cell-based, human; conditions: 100 μg/ml carboplatin or 2 μM paclitaxel, 48 hours; for caspase-3/7 activity: wildtype A2780
Experimental: as §4
Transfection was performed using a plasmid containing the full-length cDNA (SEQ ID NO:3) of human MyD88 (pUNO-hMyD88, Invivogen), which encodes the amino acid sequence of SEQ ID NO:4. CP70 and A2780 cells were grown in […] surface tissue culture flasks until they reached 50% confluence. 12 μl of the Fugene 6 Transfection reagent was added into 4 ml of serum-free media for each transfection. After 5 minutes of incubation at room temperature, 1 μg of the plasmid pUNO-hMyD88 was added to the serum-free media containing Fugene 6 Transfection Reagent, and the mixtures were incubated at room temperature for another 15 minutes. The growth media in each flask was discarded, and the corresponding Fugene 6-plasmid-serum-free-media mixture was added and the flasks were incubated overnight at 37° C. 5% CO2. The transfection media was replaced with fresh growth media the second day and the cells were allowed to recover for 24 hours post transfection before treatments.
Applicants also determined whether the expression of MyD88 confers resistance that is specific to paclitaxel. Wildtype (wt) A2780 EOC cells (carboplatin sensitive) and A2780 EOC cells transfected with MyD88 were treated with 100 μg/ml carboplatin or 2 μM paclitaxel for 48 hours. Apoptosis was determined by measuring caspase-3/7 activity.

MyD88+ cells = experiment: Western blot of XIAP, pAkt and total Akt in MyD88+ cells; type: cell-based, human
Description: Twenty μg protein were denatured in sample buffer (2.5% SDS, 10% glycerol, 5% β-mercapto-ethanol, 0.15 M Tris (pH=6.8) and 0.01% bromophenol blue) and subjected to 12% SDS-PAGE as previously described (17). Antibodies used: rabbit anti-TLR-4 (Santa Cruz Biotechnology, Santa Cruz, Calif., 1:1,000), rabbit anti-MyD88 (eBiosciences, San Diego, Calif., 1:1,000), mouse anti-NF-κB (Santa Cruz Biotechnology, 1:1,000), mouse anti-DNA topoisomerase 1 (BD Biosciences, San Jose, Calif., 1:500) and, rabbit anti-actin (Sigma Chemical Co., 1:10,000). Proteins were visualized using enhanced chemiluminescence (Pierce Biotechnology).
TLR-4 ligation through NF-κB and inflammatory molecules promotes cell survival by the induction of the expression of anti-apoptotic proteins (24, 25). The expression of X-linked inhibitor of apoptosis (XIAP), a major inhibitor of caspase-3 and 9, and the expression of Akt has been associated with tumor growth and chemoresistance in ovarian cancer cells (26-28). Therefore, Applicants evaluated the expression of XIAP and phosphorylated Akt (pAkt) following paclitaxel treatment in MyD88^+ cells. […] Similarly, XIAP levels increased 2 h post-treatment. In contrast, no change on the levels of total Akt was observed.

murine macrophages = conditions: cited from earlier work

CC(=O)O[C@H]1C(=O)[C@@]2(C)[C@H]([C@H](OC(=O)c3ccccc3)[C@]3(O)C[C@H](OC(=O)[C@H](O)[C@@H](NC(=O)c4ccccc4)c4ccccc4)C(C)=C1C3(C)C)[C@]1(OC(C)=O)CO[C@@H]1C[C@@H]2O [paclitaxel]
proliferation in culture upon TLR-4 ligation (MyD88+ EOC cells [1]): proliferate in culture
IL-6 production (MyD88+ EOC cells [2]): significant increase
IL-6 levels (MyD88- EOC cells [3]): did not affect
caspase-3/7 activity (MyD88- EOC cell lines): significant increase
caspase-3/7 activity (MyD88+ EOC cells [4]): no significant change
caspase activity (normal OSE cells): Significant increase
secretion of IL-4, IL-12 and IFN-γ (MyD88+ EOC cells [5]): neither MyD88^+ nor MyD88^− EOC cells secreted detectable levels
secretion of IL-6, IL-8 and RANTES (MyD88+ EOC cells [5]): increased secretion
secretion of IL-4, IL-12 and IFN-γ (MyD88- EOC cells [6]): neither MyD88^+ nor MyD88^− EOC cells secreted detectable levels
secretion of IL-6, IL-8 or RANTES (MyD88- EOC cells [6]): neither constitutive secretion nor LPS- or paclitaxel-induced
IL-6 secretion (MyD88+ R182 EOC cells; R182 cells after inhibition of MyD88 expression by RNAi): decreased IL-6 secretion
IL-6 production (MyD88+ R182 EOC cells; wild type R182 cells, LPS 10 μg/ml or paclitaxel 2 μM): high levels of IL-6
caspase-3/7 activity (A2780 and CP70 EOC cells; cells transfected with pUNO-hMyD88, 2 μM paclitaxel): no changes
caspase-3/7 activity (A2780 and CP70 EOC cells; wt cells, 2 μM paclitaxel): significant increase
caspase-3/7 activity (A2780 EOC cells): significant increase
XIAP levels (MyD88+ cells; 2 h post-treatment): increased
phosphorylated Akt (pAkt) (MyD88+ cells; 4 h after treatment): significant increase
levels of total Akt (MyD88+ cells; after paclitaxel treatment): no change
secretion of inflammatory cytokines, including TNFα, IL-6 and IL-8 (murine macrophages; TLR-4 and MyD88 dependent): induces the secretion of inflammatory cytokines
macrophage activation (murine macrophages; studies by Ding et al): activates murine macrophages

N.N.O=C([O-])C1(C(=O)[O-])CCC1.[Pt+2] [carboplatin]
sensitivity (apoptosis by caspase-3/7 activity) (A2780 EOC cells; A2780 transfected with MyD88): retained its sensitivity
caspase-3/7 activity (A2780 EOC cells): significant increase

Source: US7985538B2, “Drug resistance and methods of reversing” (Yale University, priority 2006, dated 2011)
